Test results from PMC11931445, “A Novel Compound QO‐83 Alleviates Acute and Chronic Epileptic Seizures in Rodents by Modulating KV7 Channel Activity” (CNS Neuroscience & Therapeutics, 2025).

Key:
liver tissue = experiment: Liver toxicity, 28 days gavage; assay type: in vivo, KM mice; settings: for liver-body weight ratio compared to control: QO-83 20, Flupirtine 20, APAP 200 mg/kg/d
Experimental: Twenty-four KM mice, half male and half female, weighing between 18 and 22 g, were randomly divided into four groups, each consisting of six mice: a control group, an acetaminophen (APAP) group, a flupirtine (FM) group, and a QO-83 group. The treatment lasted for 28 days, and the drug solvent was a 0.8% sodium carboxymethyl cellulose solution. The control group received an equal amount of 0.8% sodium carboxymethyl cellulose solution. A single dose was administered to each group via gavage, and the dosage volume was calculated based on the body weight of the mice. The control group received 0.8% sodium carboxymethyl cellulose solution, the APAP group received acetaminophen at 200 mg/kg/d, the FM group received […] at 20 mg/kg/d, and the QO-83 group received QO-83 at 20 mg/kg/d. After 28 days of administration, the liver was isolated, fixed in 4% paraformaldehyde for at least 24 h, routinely embedded in paraffin, and sectioned into 3–5 μm continuous slices. Hematoxylin-eosin (HE) staining was performed to observe the pathological structure of the tissue. After staining with HE, the tissue was dehydrated using an alcohol gradient, cleared, and mounted for the observation of liver lesions under a light microscope.

L02 cells = experiment: MTT cytotoxicity; assay type: cell-based, human; settings: 100 μM; 24h and 48h
Experimental: Normal human liver L02 cells were cultured in RPMI-1640 complete medium and maintained in a humidified incubator at 37°C with 5% CO2. Cell status was observed daily, and the medium was changed every 1–2 days. During the experiment, cells in good condition and in the logarithmic growth phase were selected. After digestion and collection, the cells were evenly suspended, and the cell suspension concentration was adjusted to 5×10^4 cells/mL. A volume of 150 μL was inoculated per well in a 96-well plate, leaving the surrounding wells for the addition of sterilized PBS (100 μL per well) to prevent edge effects. The plate was then placed in an incubator for further incubation. After 12 h of culturing to allow cell adhesion, the culture medium was aspirated from the 96-well plate. Based on the control, QO-83 was added at concentrations of 0.1 μM, 0.3 μM, 1 μM, 3 μM, 10 μM, 30 μM, and 100 μM, along with Flupirtine (100 μM) in a concentration gradient of 150 μL per well, with six replicates for each group. The control group served as the normal control. The cultures were incubated for 24 and 48 h, respectively. After this period, the culture medium was removed, and 50 μL of 5 mg/mL MTT solution was added to each well, followed by continued incubation for 4 h. […] Finally, the absorbance was measured using a microplate reader (preheated for at least 15 min) at a wavelength of 490 nm.

[1] = system: pilocarpine-induced seizures; experiment: Pilocarpine-induced status epilepticus model with EEG; assay type: in vivo, Sprague–Dawley (SD) rats
From the text: For animal experiments, we used adult male Sprague–Dawley (SD) rats weighing between 240 and 260 g. Isoflurane anesthesia was used for all operations. Rats were secured in a stereotaxic frame, and the anterior fontanelle was marked 3 mm posteriorly. Additionally, marks were made approximately 3 mm lateral to the midline on both sides to indicate the insertion points for the positive and negative electrodes. A ground electrode was placed subcutaneously in the occipital lobe to eliminate recording noise. Postoperatively, each animal was housed separately in a single cage and provided food and water ad libitum. After a 3‐day adaptation period, electroencephalograms (EEG) were recorded.
The experimental procedure commenced with an intraperitoneal injection of lithium chloride (127 mg/kg). After 24 h, subcutaneous scopolamine methyl nitrate (1 mg/kg) was administered. […] Twenty minutes later, status epilepticus (SE) was induced by administering pilocarpine (100 mg/kg, i.p.). SE was terminated 2 h later by administering 10% chloral hydrate.
The Pilo group, 2 mg/kg XE991 group, and 2 mg/kg XE991 + 1 mg/kg QO‐83 group received an intraperitoneal injection of lithium chloride (127 mg/kg) 24 h prior to testing. Following this, scopolamine methyl nitrate (1 mg/kg) was administered […], and after 10 min, each group was treated with 25% beta‐cyclodextrin, 2 mg/kg XE991, or 2 mg/kg XE991, respectively. After 15 min, 25% beta‐cyclodextrin, 25% beta‐cyclodextrin, or 1 mg/kg QO‐83 was administered. Finally, 25 min later, pilocarpine (100 mg/kg, i.p.) was administered to induce seizures.
Seizure severity was assessed using a standardized scale ranging from 1 to 5, adapted from previous research criteria. Stage 1 encompasses mouth and facial movements, including wet dog shakes. Stage 2 involves head nodding. Stage 3 is characterized by unilateral forelimb clonus. […] Finally, stage 5 manifests as clonus of all limbs accompanied by falling.

KV7.2 = target: T1, KV7.2 (Homo sapiens, UniProt O43526); experiment: Manual patch clamp, KV7 currents; assay type: cell-based; settings: 20 μM XE991
T1 construct: expressed in transfected cells
Experimental: Pipettes (1–6 MΩ) were filled with a solution of KCl (145 mM), MgCl2 (1 mM), HEPES (10 mM), and EDTA (5 mM). The pH was adjusted to 7.2 with NaOH. Electrophysiological measurements were obtained using an AXON Multiclamp 700 B patch‐clamp amplifier. The bath solution contained NaCl (144 mM), KCl (5 mM), MgCl2 (1 mM), CaCl2 (2 mM), and D‐glucose (10 mM), with the pH adjusted to 7.4 using NaOH. The protocol involved an increase in voltage from −120 mV to 40 mV in increments of 10 mV to evoke a series of KV7 currents (1000 ms per pulse) in the bath solution. For details on cell culture, please see Appendix S1 2.2.1.
Statistical differences between multiple groups (mean ± SEM) were compared using one‐ or two‐way ANOVA. Electrophysiological data were analyzed using SPSS version 21 and OriginPro (version 9.1.0). P Peak inward currents obtained from activation protocols were calculated using the following equation: G = I/(Vm‐EK), where G is conductance, I is peak inward current, Vm is instantaneous membrane potential, and EK is equilibrium potential for the […] channel. Conductance data were normalized using maximum conductance and further fitted to the Boltzmann equation: G=Gmax+Gmin−Gmax/1+expVm−V1/2/k , where G is conductance, V1/2 is midpoint of activation, and k is slope factor. The “Spectrum” module of LabChart was used for data analysis of EEG signals, including the calculation of power density and averaging power spectral density (PSD).
Stable Chinese Hamster Ovary (CHO) cell lines expressing specific Kv7 channel subtypes, including KV7.2 and KV7.2/7.3, were cultured in Minimum Essential Medium (MEM) supplemented with 10% fetal calf serum, 1× nonessential amino acids, […], and […] hygromycin B. Concurrently, KV7.4 and KV7.5 channels were stably expressed in Human Embryonic Kidney 293A (HEK293A) cell lines and nurtured in Dulbecco's Modified Eagle Medium (DMEM) high glucose medium supplemented with 10% fetal bovine serum (FBS), […], and […] hygromycin B.

Which results are given for `CC(=O)Nc1ccc(O)cc1` [APAP, Acetaminophen]?
liver tissue pathology (HE staining) (liver tissue; QO-83 20 mg/kg/d, APAP 200 mg/kg/d): significant pathological changes; liver-body weight ratio compared to control (liver tissue): increased significantly

`CCOC(=O)Nc1ccc(NCc2ccc(F)cc2)nc1N` [Flupirtine] was tested. Which “liver-body weight ratio compared to control” value (liver tissue) did it give?
The value was “increased significantly”.

What about the “effect on cell viability (MTT)” value (L02 cells) of the same molecule?
Its value is “significantly inhibited cell viability”.

What does the source list for `O=C1c2ccccc2C(Cc2ccncc2)(Cc2ccncc2)c2ccccc21` [XE991]?
effect on EEG power density (0–50 Hz and δ, θ, α, β bands) ([1]; 2 mg/kg XE991, compared to PILO group): significantly increased the power density; seizure grade versus model group ([1]; 2 mg/kg XE991 alone): No significant differences; seizure latency ([1]; 2 mg/kg XE991 alone, Pilo model 22.73 ± 6.03 min): 8.52 ± 4.73 min; effect on QO-83-induced increase in KV7.2 channel current (KV7.2): significantly inhibited the increase in KV7.2 channel current
